Data published in patent US8828401B2, “Cytotoxic peptides and antibody drug conjugates thereof” (Pfizer Inc., priority 2011, dated 2014).
Like-named read-outs stand apart in the source and are kept apart here. Starred links: 1 amine or outer side, 2 acyl side, 3 side chain; linkers in the order of their positions; H or OH if unused. Non-standard residues stand in square brackets, D forms with d. Residues, ends and D or L forms follow the SMILES beside them. *: point of attachment. Dolaproine = CO[C@@H]([C@@H]1CCCN1)[C@@H](C)C(=O)O; Dil = CC[C@H](C)[C@H](NC)[C@@H](CC(=O)O)OC; X7 = C[C@@]1(C(=O)[*:2])CCCCN1[*:1]; NMeαMePro = CN1CCC[C@@]1(C)C(=O)*; dαMePip = C[C@]1(C(=O)O)CCCCN1; αMeV = CC(C)[C@](C)(N)C(=O)O; αMeP = C[C@@]1(C(=O)O)CCCN1; NMeAib = CNC(C)(C)C(=O)O; Aib = CC(C)(N)C(=O)O; OtBu = CC(C)(C)O*

Key:
Test in all cases: In vitro cell assay, MTS cell viability 96 hours after treatment
Type in all cases: cell-based
[1] = tested on: MDA-MB-361-DYT2 (breast cancer); settings: read-out: MDA-MB-361-DYT2 GMEAN IC50, MDA-MB-361-DYT2 cells; geometric mean; cytotoxic peptides
Summary of the method: (§1)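 Cells are exposed to 3-fold dilution series (10 points, duplicate wells) of ADC or free compound lacking antibody. After 96 hours, an MTS assay quantifies viability relative to untreated cells.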

N87 (gastric cancer) = settings: read-out: N87 GMEAN IC50, N87 cells; geometric mean; cytotoxic peptides
Summary of the method: as §1

BT474 (breast cancer) = settings: geometric mean, cytotoxic peptides, read-out: BT474 GMEAN IC50
Summary of the method: as §1

[2] = Homo sapiens, BT-474, BT474 cells

SMILES	IC50 [1] [nM]	IC50 (N87 (gastric cancer)) [nM]	IC50 (BT474 (breast cancer); [2]) [nM]	IC50 (BT474 (breast cancer); BT474 cells) [nM]
CC[C@H](C)[C@@H]([C@@H](CC(=O)N1CCC[C@H]1[C@H](OC)[C@@H](C)C(=O)N[C@@H](Cc1ccccc1)C(=O)O)OC)N(C)C(=O)[C@@H](NC(=O)C(C)(C)NC)C(C)C [#115, N,2-dimethylalanyl-N-{(1S,2R)-4-{(2S)-2-[(1R,2R)-3-{[(1S)-1-carboxy-2-phenylethyl]amino}-1-methoxy-2-methyl-3-oxopropyl]pyrrolidin-1-yl}-2-methoxy-1-[(1S)-1-methylpropyl]-4-oxobutyl}-N-methyl-L-valinamide] (H-[NMeAib]V[Dil][Dolaproine]F-OH)	19.9	50.3	31.5	
CC[C@H](C)[C@@H]([C@@H](CC(=O)N1CCC[C@H]1[C@H](OC)[C@@H](C)C(=O)N[C@@H](Cc1ccccc1)C(=O)O)OC)N(C)C(=O)[C@@H](NC(=O)[C@]1(C)CCCN1)C(C)C [#118, 2-methyl-L-prolyl-N-[(3R,4S,5S)-1-{(2S)-2-[(1R,2R)-3-{[(1S)-1-carboxy-2-phenylethyl]amino}-1-methoxy-2-methyl-3-oxopropyl]pyrrolidin-1-yl}-3-methoxy-5-methyl-1-oxoheptan-4-yl]-N-methyl-L-valinamide] (H-[αMeP]V[Dil][Dolaproine]F-OH)	≥ 100	≥ 100	≥ 100	
CC[C@H](C)[C@@H]([C@@H](CC(=O)N1CCC[C@H]1[C@H](OC)[C@@H](C)C(=O)N[C@@H](Cc1ccccc1)C(=O)OC(C)(C)C)OC)N(C)C(=O)[C@@H](NC(=O)C(C)(C)N)C(C)C [#123, 2-methylalanyl-N-[(3R,4S,5S)-1-{(2S)-2-[(1R,2R)-3-{[(2S)-1-tert-butoxy-1-oxo-3-phenylpropan-2-yl]amino}-1-methoxy-2-methyl-3-oxopropyl]pyrrolidin-1-yl}-3-methoxy-5-methyl-1-oxoheptan-4-yl]-N-methyl-L-valinamide] (H-[Aib]V[Dil][Dolaproine]F-OtBu)	0.129	0.089	0.125	
CC[C@H](C)[C@@H]([C@@H](CC(=O)N1CCC[C@H]1[C@H](OC)[C@@H](C)C(=O)N[C@@H](Cc1ccccc1)C(=O)OC)OC)N(C)C(=O)[C@@H](NC(=O)[C@@](C)(N)C(C)C)C(C)C [#147, 3-methyl-L-isovalyl-N-{(1S,2R)-4-{(2S)-2-[(1R,2R)-3-{[(1S)-1-benzyl-2-methoxy-2-oxoethyl]amino}-1-methoxy-2-methyl-3-oxopropyl]pyrrolidin-1-yl}-2-methoxy-1-[(1S)-1-methylpropyl]-4-oxobutyl}-N-methyl-L-valinamide] (H-[αMeV]V[Dil][Dolaproine]F-OMe)	0.421	0.144	0.456	
CC[C@H](C)[C@@H]([C@@H](CC(=O)N1CCC[C@H]1[C@H](OC)[C@@H](C)C(=O)N[C@@H](Cc1ccccc1)C(=O)O)OC)N(C)C(=O)[C@@H](NC(=O)[C@]1(C)CCCN1C)C(C)C [#151, 1,2-dimethyl-L-prolyl-N-{(1S,2R)-4-{(2S)-2-[(1R,2R)-3-{[(1S)-1-carboxy-2-phenylethyl]amino}-1-methoxy-2-methyl-3-oxopropyl]pyrrolidin-1-yl}-2-methoxy-1-[(1S)-1-methylpropyl]-4-oxobutyl}-N-methyl-L-valinamide] (NMeαMePro-V[Dil][Dolaproine]F-OH)	84.6	62	84.9	
CC[C@H](C)[C@@H]([C@@H](CC(=O)N1CCC[C@H]1[C@H](OC)[C@@H](C)C(=O)N[C@@H](Cc1ccccc1)c1nccs1)OC)N(C)C(=O)[C@@H](NC(=O)C(C)(C)CNC)C(C)C [#154, N˜2˜-[2,2-dimethyl-3-(methylamino)propanoyl]-N-{(1S,2R)-2-methoxy-4-{(2S)-2-[(1R,2R)-1-methoxy-2-methyl-3-oxo-3-{[(1S)-2-phenyl-1-(1,3-thiazol-2-yl)ethyl]amino}propyl]pyrrolidin-1-yl}-1-[(1S)-1-methylpropyl]-4-oxobutyl}-N-methyl-L-valinamide]	0.198	0.572	0.193	
CC[C@H](C)[C@@H]([C@@H](CC(=O)N1CCC[C@H]1[C@H](OC)[C@@H](C)C(=O)N[C@@H](Cc1ccccc1)C(=O)OC)OC)N(C)C(=O)[C@@H](NC(=O)C(C)(C)CNC)C(C)C [#155, methyl N-{(2R,3R)-3-[(2S)-1-{(3R,4S,5S)-4-[{N-[2,2-dimethyl-3-(methylamino)propanoyl]-L-valyl}(methyl)amino]-3-methoxy-5-methylheptanoyl}pyrrolidin-2-yl]-3-methoxy-2-methylpropanoyl}-L-phenylalaninate]	0.318	0.875	0.323	
CC[C@H](C)[C@@H]([C@@H](CC(=O)N1CCC[C@H]1[C@H](OC)[C@@H](C)C(=O)N[C@@H](Cc1ccccc1)C(=O)O)OC)N(C)C(=O)[C@@H](NC(=O)[C@]1(C)CCCCN1)C(C)C [#162, N-{(2R,3R)-3-methoxy-3-[(2S)-1-{(3R,4S,5S)-3-methoxy-5-methyl-4-[methyl(N-{[(2S)-2-methylpiperidin-2-yl]carbonyl}-L-valyl)amino]heptanoyl}pyrrolidin-2-yl]-2-methylpropanoyl}-L-phenylalanine] (H-[X7]V[Dil][Dolaproine]F-OH)	27.8	21.6	31.4	
CC[C@H](C)[C@@H]([C@@H](CC(=O)N1CCC[C@H]1[C@H](OC)[C@@H](C)C(=O)N[C@@H](Cc1ccccc1)C(=O)O)OC)N(C)C(=O)[C@@H](NC(=O)[C@@]1(C)CCCCN1)C(C)C [#163, N-{(2R,3R)-3-methoxy-3-[(2S)-1-{(3R,4S,5S)-3-methoxy-5-methyl-4-[methyl(N-{[(2R)-2-methylpiperidin-2-yl]carbonyl}-L-valyl)amino]heptanoyl}pyrrolidin-2-yl]-2-methylpropanoyl}-L-phenylalanine] (H-[dαMePip]V[Dil][Dolaproine]F-OH)	99.4	72.7	≥ 100	
CC[C@H](C)[C@@H]([C@@H](CC(=O)N1CCC[C@H]1[C@H](OC)[C@@H](C)C(=O)N[C@@H](Cc1ccccc1)C(=O)OC)OC)N(C)C(=O)[C@@H](NC(=O)[C@@]1(F)CCNC1)C(C)C [#172, methyl N-{(2R,3R)-3-[(2S)-1-{(3R,4S,5S)-4-[(N-{[(3R)-3-fluoropyrrolidin-3-yl]carbonyl}-L-valyl)(methyl)amino]-3-methoxy-5-methylheptanoyl}pyrrolidin-2-yl]-3-methoxy-2-methylpropanoyl}-L-phenylalaninate]	0.086	0.144	0.057	
CC[C@H](C)[C@@H]([C@@H](CC(=O)N1CCC[C@H]1[C@H](OC)[C@@H](C)C(=O)N[C@@H](Cc1ccccc1)C(=O)OC)OC)N(C)C(=O)[C@@H](NC(=O)[C@@]1(F)CCNC1)C(C)C [#173, methyl N-{(2R,3R)-3-[(2S)-1-{(3R,4S,5S)-4-[(N-{[(3R)-3-fluoropyrrolidin-3-yl]carbonyl}-L-valyl)(methyl)amino]-3-methoxy-5-methylheptanoyl}pyrrolidin-2-yl]-3-methoxy-2-methylpropanoyl}-L-phenylalaninate]	0.067	0.099		0.088
CC[C@H](C)[C@@H]([C@@H](CC(=O)N1CCC[C@H]1[C@H](OC)[C@@H](C)C(=O)NCCC1C=CC=CC=C1)OC)N(C)C(=O)[C@@H](NC(=O)[C@]1(C)CCCCN1)C(C)C [#178, (2S)-N-[(2S)-1-{[(3R,4S,5S)-1-{(2S)-2-[(1R,2R)-3-{[2-(cyclohepta-2,4,6-trien-1-yl)ethyl]amino}-1-methoxy-2-methyl-3-oxopropyl]pyrrolidin-1-yl}-3-methoxy-5-methyl-1-oxoheptan-4-yl](methyl)amino}-3-methyl-1-oxobutan-2-yl]-2-methylpiperidine-2-carboxamide]	0.911	1.26	0.968	
CC[C@H](C)[C@@H]([C@@H](CC(=O)N1CCC[C@H]1[C@H](OC)[C@@H](C)C(=O)NCCC1C=CC=CC=C1)OC)N(C)C(=O)[C@@H](NC(=O)[C@@]1(F)CCNC1)C(C)C [#184, N-[(3R,4S,5S)-1-{(2S)-2-[(1R,2R)-3-{[2-(cyclohepta-2,4,6-trien-1-yl)ethyl]amino}-1-methoxy-2-methyl-3-oxopropyl]pyrrolidin-1-yl}-3-methoxy-5-methyl-1-oxoheptan-4-yl]-N˜2˜-{[(3R)-3-fluoropyrrolidin-3-yl]carbonyl}-N-methyl-L-valinamide]	3.43	5.1	2.48	
CC[C@H](C)[C@@H]([C@@H](CC(=O)N1CCC[C@H]1[C@H](OC)[C@@H](C)C(=O)N[C@@H](Cc1ccc2c(c1)CCCN2)C(=O)OC)OC)N(C)C(=O)[C@@H](NC(=O)[C@@]1(C)CCCN1C)C(C)C [#200, 1,2-dimethyl-D-prolyl-N-[(3R,4S,5S)-3-methoxy-1-{(2S)-2-[(1R,2R)-1-methoxy-3-{[(2S)-1-methoxy-1-oxo-3-(1,2,3,4-tetrahydroquinolin-6-yl)propan-2-yl]amino}-2-methyl-3-oxopropyl]pyrrolidin-1-yl}-5-methyl-1-oxoheptan-4-yl]-N-methyl-L-valinamide]	0.017	0.029	0.048	
CC[C@H](C)[C@@H]([C@@H](CC(=O)N1CCC[C@H]1[C@H](OC)[C@@H](C)C(=O)N[C@@H](Cc1ccccc1)C(=O)OC)OC)N(C)C(=O)[C@@H](NC(=O)[C@]1(C)CCCN1C)C(C)C [#209, 1,2-dimethyl-L-prolyl-N-[(3R,4S,5S)-3-methoxy-1-{(2S)-2-[(1R,2R)-1-methoxy-3-{[(2S)-1-methoxy-1-oxo-3-phenylpropan-2-yl]amino}-2-methyl-3-oxopropyl]pyrrolidin-1-yl}-5-methyl-1-oxoheptan-4-yl]-N-methyl-L-valinamide] (NMeαMePro-V[Dil][Dolaproine]F-OMe)	0.058	0.067	0.067	
